Measurements as given in US20200131161A1, “NOVEL POCHONIOLIDE COMPOUND AND USE THEREOF” (THE KITASATO INSTITUTE, priority 2017, published 2020).

Key:
[1] = Acrylamide produced by Maillard reaction using a mixture of asparagine and glucose (Morinaga acrylamide EIA kit); settings: compound at 6 mg/ml final concentration; heated in autoclave 121° C. 20 minutes; untreated sample 51 ng/ml
Procedure: An aqueous solution (0.25 ml) of 100 mg/ml glucose (Wako Pure Chemical Corporation) treated with Chelex 100 (Bio-Rad Laboratories, Inc.) and an aqueous solution (0.5 ml) of 50 mg/ml asparagine (Wako Pure Chemical Corporation) treated with Chelex 100 (Bio-Rad Laboratories, Inc.) were introduced into a 1.5-ml microtube. Pochoniolides A, B, and C dissolved in methanol to a fmal concentration of 6 mg/ml and dihydroquercetin (final concentration 10% methanol) as a positive control were added, and the total amount of the solution was adjusted to 1.0 ml with the addition of distilled water. After the resultant was heated in an autoclave at 121° C. for 20 minutes, the amount of acrylamide produced was measured with the use of Morinaga acrylamide EIA kit (Morinaga Institute of Biological Science, Inc.) in accordance with the protocols.

[2] = Effects for decreasing acrylamide in model food (french fries); settings: test compound at final concentration of 1% applied to formed potatoes, fried in oil at 170 to 200 degrees for 1 minute; for concentration of acrylamide produced: control 7 ppm
Procedure: Pochoniolides B and C were evaluated in terms of effects of decreasing acrylamide in a model food (french fries) using dihydroquercetin as a positive control. Commercially available frozen french fries (raw) were thawed and a portion of 10 g was separated. The portion of 10 g was ground in a mortar and formed into individual homogeneous portions of 1 g each, followed by forming. The test compounds were dissolved in a small amount of ethanol to a final concentration of 1%. The ethanol solution was homogeneously applied to the formed potatoes. The potatoes were fried in oil at 170 to 200 degrees for 1 minute, and measurement of the acrylamide concentration was requested to Morinaga Institute of Biological Science, Inc. The results are shown in FIG. 7. While the concentration of acrylamide produced was 7 ppm with the addition of control sample, the concentration of acrylamide produced was 4 ppm with the addition of dihydroquercetin as a positive control. No effects of pochoniolide B for decreasing the amount of acrylamide production were observed. The concentration of acrylamide produced was 2 ppm in the group to which pochoniolide C was added.

[3] = tested on: HeLaS3 cells, A549 cells, H1299 cells, HT29 cells, Pancl cells, Jurkat cells, HL60 cells, THP-1 cells; assay: Cytotoxicity test in vitro, cell viability by WST-8; type: cell-based; settings: at 100 μM, all eight human cell lines, culture for 2 days
Procedure: Cytotoxicity of the pochoniolides of the present invention on various cells was tested. Human cervical cancer-derived HeLaS3 cells, human lung cancer-derived A549 cells, human lung cancer-derived H1299 cells (not expressing p53), human colon adenocarcinoma HT29 cells, human pancreatic cancer […], human acute T cell leukemia-derived Jurkat cells, human promyelocyte leukemia HL60 cells, and human acute monocytic leukemia THP-1 cells were subjected to evaluation of cytotoxicity by measuring cell viability using WST-8 (Dojindo Laboratories). The cells that had reached 80% confluence were counted using a hemocytometer, and a cell suspension was prepared. The cell suspension was dispensed into each well of a 96-well microplate at 100 μl/well using multichannel pipettes. Only a medium was added to a blank (background) well in an amount of 100 μl. HeLaS3 cells, A549 cells, H1299 cells, HT29 cells, and […] cultured for 24 hours in a CO2-incubator, Jurkat cells, HL60 cells, and THP-1 cells were cultured for 1 to 2 hours in a CO2-incubator. Solutions of the compounds diluted 3-fold from 10 mM to 100 μM in methanol or dimethyl sulfoxide were prepared, and the resulting solutions were then added at 1 μl/well (final concentration: 100 μM to 1 μM). After culture was performed for 2 days, 10 μl of the WST-8 reagent was introduced into each well, culture was performed for 30 to 60 minutes, and the absorbance at 460 nm was measured. The cell viability was determined in accordance with the following equation. Cell viability (%)=[(As-Ab)/(Ac-Ab)]×100 • As: Absorbance of sample (a well containing cells, pochoniolide A, B, or C, and a WST-8 solution) • Ac: Absorbance of control (a well containing cells and a WST-8 solution without pochoniolide A, B, or C) • Ab: Absorbance of blank (a well containing a medium and a WST-8 solution without cells)

[4] = Solubility (physicochemical properties); settings: DMSO, acetone, water, methanol
[5] = tested on: Bacillus subtilis ATCC 6633, Micrococcus luteus ATCC 9341, Escherichia coli NIHJKB213, Xanthomonas campestris pv. oryzae KB 88, Candida albicans KF1, Mucor …; type: cell-based

For `O=C1c2c(O)cc(O)cc2O[C@H](c2ccc(O)c(O)c2)[C@H]1O` [dihydroquercetin, reference compound], the “amount of acrylamide produced” value [1] was 28 ng/mL and the “concentration of acrylamide produced” value [2] was 4 ppm.
For `O=C(O)CC1OC(=O)C=C1c1coc2cc(O)cc(O)c2c1=O` (stereo not shown) [pochoniolide A], the “cytotoxicity (cell viability)” value [3] was “no toxicity”, the Solubility [4] was “easily soluble in DMSO and acetone, but hardly soluble in water and methanol” and the “amount of acrylamide produced” value [1] was 53 ng/mL. The “antibacterial activity (growth-inhibiting circle)” value [5] was “no antibacterial activity”.
With `O=C(O)CC1OC(=O)C=C1C1Oc2cc(O)cc(O)c2C(=O)C1O` (stereo not shown) [pochoniolide C] the “cytotoxicity (cell viability)” value [3] was “no toxicity”, the Solubility [4] was “easily soluble in DMSO and acetone, but hardly soluble in water and methanol” and the “amount of acrylamide produced” value [1] was 18 ng/mL. The “concentration of acrylamide produced” value [2] was 2 ppm and the “antibacterial activity (growth-inhibiting circle)” value [5] was “no antibacterial activity”.
In the case of pochoniolide B, the “cytotoxicity (cell viability)” value [3] is reported as “no toxicity”, the Solubility [4] is reported as “easily soluble in DMSO and acetone, but hardly soluble in water and methanol” and the “amount of acrylamide produced” value [1] is reported as 9 ng/mL. The “effects for decreasing the amount of acrylamide production” value [2] was “No effects” and the “antibacterial activity (growth-inhibiting circle)” value [5] was “no antibacterial activity”.
